Experimental data as given in paper PMC12373499 (Nature Metabolism, 2025).
Where “and” joins values, the source holds several entries; their conditions need not be identical. Equal values may be shown once. Read-outs that look alike come from different tables or passages of the source. *1 amine or outer side, *2 acyl side, *3 side chain or, on linkers, in order; H or OH if unused. Where a SMILES comes first, the peptide text is derived from it. Side-chain parts run from the residue outwards. [ ]: non-standard residue; d: D form. The star is where a group is joined. X1 = CN1C(=CC=CC=CC2=[N+](CCCCCC(=O)NCCN3C(=O)CC(*)C3=O)c3ccccc3C2(C)C)C(C)(C)c2ccccc21; X2 = CN1C(=CC=CC2=[N+](CCCCCC(=O)NCCN3C(=O)CC(*)C3=O)c3ccccc3C2(C)C)C(C)(C)c2ccccc21; C20 diacid = O=C(O)CCCCCCCCCCCCCCCCCCC(=O)*; γGlu = O=C(O)[C@H](CCC(=O)[*:2])N[*:1]; AEEA = NCCOCCOCC(=O)O; Aib = CC(C)(N)C(=O)O

Columns and labels:
mGIPR = molecular target: T1, mGIPR (Mus musculus, UniProt Q0P543); experiment: HTRF cAMP assay in transiently transfected AD293 cells; type: cell-based; conditions: based upon cAMP assays and binding affinity
T1 construct: expressed in transfected cells; host or cells: AD293 cells, transient transfection (Lipofectamine 2000)
T1 sequence (Q0P543 19-460): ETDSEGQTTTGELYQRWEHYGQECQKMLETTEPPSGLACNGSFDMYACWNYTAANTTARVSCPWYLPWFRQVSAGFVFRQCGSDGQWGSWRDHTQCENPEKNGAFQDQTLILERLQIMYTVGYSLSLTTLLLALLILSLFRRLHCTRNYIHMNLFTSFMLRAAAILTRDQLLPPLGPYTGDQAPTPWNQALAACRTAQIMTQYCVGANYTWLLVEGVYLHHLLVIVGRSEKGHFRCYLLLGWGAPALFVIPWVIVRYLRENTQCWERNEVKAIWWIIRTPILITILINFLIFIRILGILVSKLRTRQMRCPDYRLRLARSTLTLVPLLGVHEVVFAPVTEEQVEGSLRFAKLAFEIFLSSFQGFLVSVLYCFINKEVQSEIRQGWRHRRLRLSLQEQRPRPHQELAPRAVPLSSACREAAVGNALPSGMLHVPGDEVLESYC
Method: AD293 cells (RRID:CVCL_9804) were transiently transfected 24 h before the assay in six-well plates with plasmids encoding wild-type hGLP1R, mGLP1R, hGIPR or mGIPR using Lipofectamine 2000. AD293 cells were authenticated at source using STR profiling. Cells were detached and treated with a range of agonist concentrations in serum-free DMEM + 0.1% BSA for 30 min at 37 °C in 96-well plates, followed by the addition of lysis buffer 2 (Cisbio) at a 1:2 ratio. Lysates were further diluted 1:10 to avoid spectral interference from the higher concentrations of fluorescent ligands in the HTRF assay, and the concentration of cAMP was determined after the addition of cAMP Dynamic detection reagents (Cisbio).

mouse islets = experiment: Colocalization (Manders' coefficient) of probes in mouse islets; type: cell-based; conditions: WT islets live, TzCy3 500nM + LUX645 100nM
Method: (§1) Probe labelling was analysed using corrected total cell fluorescence, which is integrated density − (area of selected cell × mean fluorescence of background readings)[52],[53]. Colocalization was determined using Manders’ coefficient, which calculates the proportion of pixels in one channel that also show intensity from both channels. Full width at half maximum was used to analyse labelling patterns at the membrane versus cytoplasm. All analyses were performed in ImageJ (NIH), with brightness and contrast linearly adjusted across the entire image for presentation purposes and applied equally between all states under examination.

GLP1R^KO/KO islets = experiment: Probe labelling of GLP1R^KO/KO islets; type: cell-based, mouse; conditions: for CTCF values of daLUXendin544: individual values
Method: Mice were humanely killed using a schedule-1 method, and the common bile duct was injected with Serva NB8 (1 mg ml^−1) collagenase. The inflated pancreas was dissected, and islets were isolated using Histopaque-1119 and 1083 (Sigma-Aldrich) gradients and cultured at 37 °C, 5% CO2 in RPMI supplemented with 10% FBS (Gibco), 100 units per ml penicillin and 100 μg ml^−1 streptomycin. Islets were used up to 4 days after isolation.
as §1

Nluc–GLP1R (hGLP1R) = molecular target: T2, Nluc–GLP1R (hGLP1R) (Homo sapiens, UniProt P43220); experiment: NanoBRET saturation binding assay, HEK293T cells
T2 construct: expressed in transfected cells; host or cells: HEK293T cells, transient expression
T2 sequence (P43220 24-463): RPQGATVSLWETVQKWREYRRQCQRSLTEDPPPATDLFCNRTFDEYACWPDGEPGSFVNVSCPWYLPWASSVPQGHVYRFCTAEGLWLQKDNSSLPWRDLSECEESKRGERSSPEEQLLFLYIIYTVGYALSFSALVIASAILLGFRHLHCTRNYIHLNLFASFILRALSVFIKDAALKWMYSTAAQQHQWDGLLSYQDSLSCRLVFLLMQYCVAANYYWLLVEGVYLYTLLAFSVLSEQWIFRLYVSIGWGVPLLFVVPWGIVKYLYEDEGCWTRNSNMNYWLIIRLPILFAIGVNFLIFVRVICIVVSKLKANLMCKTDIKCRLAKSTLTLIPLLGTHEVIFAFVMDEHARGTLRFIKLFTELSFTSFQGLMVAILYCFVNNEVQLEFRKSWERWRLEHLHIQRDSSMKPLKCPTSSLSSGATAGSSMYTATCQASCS
Method: (§2) HEK293T cells (RRID:CVCL_0063) were cultured in DMEM/F12 GlutaMAX (ThermoFisher), supplemented with 10% FBS and 1% antibiotic-antimycotic solution and cultured at 37 °C, 5% CO2. HEK293T cells were authenticated at source using STR profiling. […] Media was then removed and the cells were incubated in PBS supplemented with 0.1% BSA and 0.01% NanoGlo (Promega). […] Plates were read using a PheraSTAR microplate reader, using the NanoBRET filter module. BRET ratios (λacceptor/λdonor) were calculated, and saturation data fit using the ‘One Site – Specific Binding’ equation of GraphPad Prism 10. Competition binding was fit using the ‘One Site – Fit Ki’ equation.

Nluc–GIPR (hGIPR) = molecular target: T3, Nluc–GIPR (hGIPR) (Homo sapiens, UniProt P48546); experiment: NanoBRET saturation binding assay, HEK293T cells
T3 construct: expressed in transfected cells; host or cells: HEK293T cells, transient expression
T3 sequence (P48546 22-466): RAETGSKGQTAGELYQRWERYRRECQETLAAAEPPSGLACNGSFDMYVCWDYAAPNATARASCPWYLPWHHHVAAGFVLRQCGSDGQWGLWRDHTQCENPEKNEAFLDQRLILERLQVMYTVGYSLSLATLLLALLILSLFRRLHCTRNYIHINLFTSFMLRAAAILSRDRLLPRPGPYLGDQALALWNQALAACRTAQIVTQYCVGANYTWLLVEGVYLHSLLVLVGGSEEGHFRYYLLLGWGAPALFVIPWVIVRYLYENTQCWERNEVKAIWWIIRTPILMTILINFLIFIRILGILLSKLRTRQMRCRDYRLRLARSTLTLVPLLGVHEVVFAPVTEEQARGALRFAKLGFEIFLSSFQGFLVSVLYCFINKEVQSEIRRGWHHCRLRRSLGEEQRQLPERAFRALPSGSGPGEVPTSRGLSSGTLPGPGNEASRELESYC
Method: as §2

[1] = molecular target: human GIPR (Nluc-GIPR) (human) (UniProt P48546); experiment: FRET or BRET; NanoBRET saturation binding on HEK293T cells transiently expressing Nluc-GLP1R or Nluc-GIPR; PBS with 0.1% BSA and 0.01% NanoGlo; daLUXendin added over a range of concentrations, without or with 1 uM GIP and 1 uM Exendin-9 to determine specific binding; fit 'One Site - Specific Binding'
[2] = molecular target: Nluc-tagged human GLP1R (human) (UniProt P43220); experiment: FRET or BRET
Chain of Nluc-tagged human GLP1R (human) (P43220 24-463): as the sequence (P43220 24-463) above

[3] = molecular target: Nluc-tagged human GIPR (human) (UniProt P48546); experiment: FRET or BRET
[4] = molecular target: human GLP1R (Nluc-GLP1R) (human) (UniProt P43220); experiment: FRET or BRET; NanoBRET saturation binding on HEK293T cells transiently expressing Nluc-GLP1R or Nluc-GIPR; PBS with 0.1% BSA and 0.01% NanoGlo; daLUXendin added over a range of concentrations, without or with 1 uM GIP and 1 uM Exendin-9 to determine specific binding; fit 'One Site - Specific Binding'
Chain of human GLP1R (Nluc-GLP1R) (human) (P43220 24-463): as the sequence (P43220 24-463) above

[5] = molecular target: human GIPR (Nluc-GIPR) (human) (UniProt P48546); experiment: as above; remark: listed apart in the source
[6] = molecular target: human GLP1R (Nluc-GLP1R) (human) (UniProt P43220); experiment: as above; remark: listed apart in the source

CC[C@H](C)[C@H](NC(=O)[C@H](CC(C)C)NC(=O)[C@H](Cc1c[nH]c2ccccc12)NC(=O)[C@H](CCC(N)=O)NC(=O)[C@@H](NC(=O)[C@H](Cc1ccccc1)NC(=O)[C@H](C)NC(=O)[C@H](CCCCN)NC(=O)[C@H](CCC(N)=O)NC(=O)[C@H](C)NC(=O)[C@@H](NC(=O)[C@H](CCCCN)NC(=O)[C@H](CC(=O)O)NC(=O)[C@H](CC(C)C)NC(=O)C(C)(C)NC(=O)[C@@H](NC(=O)[C@H](CO)NC(=O)[C@H](Cc1ccc(O)cc1)NC(=O)[C@H](CC(=O)O)NC(=O)[C@H](CO)NC(=O)[C@@H](NC(=O)[C@H](Cc1ccccc1)NC(=O)[C@@H](NC(=O)CNC(=O)[C@H](CCC(=O)O)NC(=O)C(C)(C)NC(=O)[C@@H](N)Cc1ccc(O)cc1)[C@@H](C)O)[C@@H](C)O)[C@@H](C)CC)[C@@H](C)CC)C(C)C)C(=O)N[C@@H](C)C(=O)NCC(=O)NCC(=O)N1CCC[C@H]1C(=O)N[C@@H](CO)C(=O)N[C@@H](CO)C(=O)NCC(=O)N[C@@H](C)C(=O)N1CCC[C@H]1C(=O)N1CCC[C@H]1C(=O)N1CCC[C@H]1C(=O)N[C@@H](CSC1CC(=O)N(CCNC(=O)CCCCC[N+]2=C(C=CC=C3N(C)c4ccccc4C3(C)C)C(C)(C)c3ccccc32)C1=O)C(N)=O (stereo partly drawn) [daLUXendin544] (H-Y[Aib]EGTFTSDYSI[Aib]LDKIAQKAFVQWLIAGGPSSGAPPPC(X2)-NH2)
selectivity for mouse GLP1R over GIPR compared to tirzepatide (mGIPR): approximately fourfold less selectivity | M1, daLUXendin544 vs LUXendin645 (mouse islets; image 1): 0.917 | M2, daLUXendin544 vs LUXendin645 (mouse islets; image 1): 0.994 | Manders' R, daLUXendin544 vs LUXendin645 (mouse islets; image 1): 0.852 | Pearson's, daLUXendin544 vs LUXendin645 (mouse islets; image 1): 0.83 | M1, daLUXendin544 vs LUXendin645 (mouse islets; image 2): 0.927 | M2, daLUXendin544 vs LUXendin645 (mouse islets; image 2): 0.996 | Manders' R, daLUXendin544 vs LUXendin645 (mouse islets; image 2): 0.744 | Pearson's, daLUXendin544 vs LUXendin645 (mouse islets; image 2): 0.679 | M1, daLUXendin544 vs LUXendin645 (mouse islets; image 3): 0.956 | M2, daLUXendin544 vs LUXendin645 (mouse islets; image 3): 0.995 | Manders' R, daLUXendin544 vs LUXendin645 (mouse islets; image 3): 0.727 | Pearson's, daLUXendin544 vs LUXendin645 (mouse islets; image 3): 0.616 | CTCF values of daLUXendin544 (GLP1R^KO/KO islets; GLP1R-/- + GIP): 466750 and 425691 and 412346 and 398972 and 803260 and 1574894 and 1388527 and 1122278 and 848564 and 323100 and 555998 and 554147 and 545690 | CTCF values of daLUXendin544 (GLP1R^KO/KO islets; GLP1R-/-): 1138974 and 1525024 and 2200632 and 868278 and 1499758 and 2095767 and 1136530 and 1464030 and 649874 and 1541507 and 604319 and 865421 | CTCF values of daLUXendin544 (GLP1R^KO/KO islets; GLP1RWT/WT): 3434876 and 3087793 and 4777725 and 2187512 and 1805461 and 1906480 and 1520223 and 2186271 and 2694391 and 5360897 and 5342379 and 1938584 and 1738950 | reduction of labelling in GLP1R^KO/KO islets (GLP1R^KO/KO islets; versus wild-type islets): ~ 50%

CC[C@H](C)[C@H](NC(=O)[C@H](CC(C)C)NC(=O)[C@H](Cc1c[nH]c2ccccc12)NC(=O)[C@H](CCC(N)=O)NC(=O)[C@@H](NC(=O)[C@H](Cc1ccccc1)NC(=O)[C@H](C)NC(=O)[C@H](CCCCNC(=O)COCCOCCNC(=O)COCCOCCNC(=O)CC[C@H](NC(=O)CCCCCCCCCCCCCCCCCCC(=O)O)C(=O)O)NC(=O)[C@H](CCC(N)=O)NC(=O)[C@H](C)NC(=O)[C@@H](NC(=O)[C@H](CCCCN)NC(=O)[C@H](CC(=O)O)NC(=O)[C@H](CC(C)C)NC(=O)C(C)(C)NC(=O)[C@@H](NC(=O)[C@H](CO)NC(=O)[C@H](Cc1ccc(O)cc1)NC(=O)[C@H](CC(=O)O)NC(=O)[C@H](CO)NC(=O)[C@@H](NC(=O)[C@H](Cc1ccccc1)NC(=O)[C@@H](NC(=O)CNC(=O)[C@H](CCC(=O)O)NC(=O)C(C)(C)NC(=O)[C@@H](N)Cc1ccc(O)cc1)[C@@H](C)O)[C@@H](C)O)[C@@H](C)CC)[C@@H](C)CC)C(C)C)C(=O)N[C@@H](C)C(=O)NCC(=O)NCC(=O)N1CCC[C@H]1C(=O)N[C@@H](CO)C(=O)N[C@@H](CO)C(=O)NCC(=O)N[C@@H](C)C(=O)N1CCC[C@H]1C(=O)N1CCC[C@H]1C(=O)N1CCC[C@H]1C(=O)N[C@@H](CSC1CC(=O)N(CCNC(=O)CCCCC[N+]2=C(C=CC=CC=C3N(C)c4ccccc4C3(C)C)C(C)(C)c3ccccc32)C1=O)C(N)=O (stereo partly drawn) [daLUXendin660+] (H-Y[Aib]EGTFTSDYSI[Aib]LDKIAQK([AEEA-AEEA-γGlu-C20 diacid])AFVQWLIAGGPSSGAPPPC(X1)-NH2)
Bmax best-fit (nM), hGLP1R (Nluc–GLP1R (hGLP1R); Nluc-tagged hGLP1R, NanoBRET saturation, n = 3 independent repeats): 0.03361 nM | Bmax (Nluc–GLP1R (hGLP1R); hGLP1R, nonlin fit, One site -- Specific binding, best-fit value of pooled data): 0.03361 | Bmax best-fit (nM), hGIPR (Nluc–GIPR (hGIPR); Nluc-tagged hGIPR, NanoBRET saturation, n = 3 independent repeats): 0.02314 nM | Bmax (Nluc–GIPR (hGIPR); hGIPR, nonlin fit, One site -- Specific binding, best-fit value of pooled data): 0.02314

daLUXendin660 (peptide)
Kd [1]: 10.2 nM and 4.22 nM and 7.41 nM | Kd [2]: 2.18 nM | Kd [3]: 8.7 nM

daLUXendin660+ (peptide)
Kd [1]: 12.2 nM and 10.7 nM and 14.1 nM | Kd [4]: 2.14 nM and 1.77 nM and 3.89 nM | Kd [2]: 1.38 nM | Kd [3]: 6.46 nM | Kd [5]: 6.46 nM | Kd [6]: 1.38 nM
